The target in experiment [1] is T1, ERK5 (Homo sapiens, UniProt Q13164).
T1 construct: gene MAPK7
The experiment is described as follows: biochemical. More on the design: radiometric 32P-ATP kinase assay, active ERK5, PIMtide substrate, p81 paper, Cherenkov counting. Particulars: 200 uM ATP. An excerpt: Gene silencing Validated siRNAs targeting NEMO were from Sigma (ref. EHU032271) and ThermoFisher (ref. AM51331). Scrambled (control) siRNA was from ThermoFisher. siRNAs were transfected into cells using Lipofectamine-2000, following the manufacturer’s recommended protocol. The vectors encoding two different shRNAs targeting ERK5 were from Sigma (TRCN0000010262/pLKO.1; TRCN0000010275/pLKO.1). Lentiviral production is detailed at Supplementary Materials and Methods. In vitro ERK5 kinase activity assay A 40 μL reaction mixture was prepared containing 200 ng of pure active ERK5 (1) and the indicated amount of inhibitor in 50 mM Tris-HCl, pH 7.5, 0.1 mM EGTA, 1 mM 2-mercaptoethanol. […] Assays were carried out for 20 min at 30°C, terminated by applying the reaction mixture onto p81 paper, and the incorporated radioactivity measured by Cherenkov counting. Most of the ERK5 inhibitors developed so far, including JWG-071, are type I competitive inhibitors that target the ATP-binding site. […] Taking in account that the homeostatic levels of intracellular ATP range from 0.5 to 5 mM [31], it is very likely that ERK5 competitive inhibitors (such as JWG-071) should require µM concentrations to displace ATP from the active site in cells. […]

A further experiment has as its system Hela (cervical). The experiment is described as follows: cells. Particulars: Homo sapiens, HeLa; 48 h, MTT. Details: MTT reduction cytotoxicity assay in human tumour cell lines. Here is the method:
(§1) Cell viability was determined by MTT (3-(4,5-dimethyl-2-thiazolyl)-2,5-diphenyl-2H-tetrazolium Blue, Sigma) reduction assay. For clonogenic assays, cells were seeded in 6-well plates, treated for 14 days and stained with 0.5% crystal violet solution. Colonies with > 40 cells were counted. Cell proliferation was measured by cell counting assay, using a TC10TM automated cell counter (Bio-Rad, Hercules, CA, USA) using Trypan Blue. Cell viability was also determined using a LIVE/DEAD viability/cytotoxicity kit assay (ThermoFisher), as reported before. The above results prompted us to investigate the anticancer activity of ERK5 inhibition in EC. To do so, we used the endometrioid cancer cell lines Ishikawa and AN3CA cells (that carry PTEN deficiency and P53 mutation), as well as the more clinically aggressive non-endometrioid serous adenocarcinoma cell line ARK1 (PI3KCA mutation). In cell viability assays, JWG-071 induced cytotoxicity in the three EC cell lines tested, with IC50 values ranging 2–3 µM. In fact, JWG-071 induced cytotoxicity in a wide panel of cancer cells, including prostate, cervical, neuroblastoma, and glioblastoma cancers (Supplementary Fig. 4).

The next experiment relates to AN3CA (endometrial). The experiment is described as follows: cells. Details: MTT reduction cytotoxicity assay in human tumour cell lines. The settings on record: Homo sapiens, AN3-CA; 48 h, MTT. As to the method:
as §1

A further experiment relates to Ishikawa (endometrial). Nature of the experiment: cells. The settings on record: Homo sapiens, Ishikawa; 48 h, MTT. More on the design: MTT reduction cytotoxicity assay in human tumour cell lines. As to the method: as §1
Another experiment concerns SH-SY5Y (neuroblastoma). Nature of the experiment: cells. Details: MTT reduction cytotoxicity assay in human tumour cell lines. The settings on record: Homo sapiens, SH-SY5Y; 48 h, MTT. Here is the method:
as §1

The next experiment relates to LN-18 (glioblastoma). Nature of the experiment: cells. Details: MTT reduction cytotoxicity assay in human tumour cell lines. Particulars: Homo sapiens, LN-18; 48 h, MTT. Here is the method: as §1
For a further experiment, the system named is IMR-32 (neuroblastoma). Nature of the experiment: cells. More on the design: MTT reduction cytotoxicity assay in human tumour cell lines. Particulars: Homo sapiens, IMR-32; 48 h, MTT. Here is the method:
as §1

The test system of a further experiment is ARK1 (endometrial). Nature of the experiment: cells. Details: MTT reduction cytotoxicity assay in human tumour cell lines. Particulars: 48 h, MTT. As to the method: as §1
A further experiment deals with C4-2 (prostate). The experiment is described as follows: cells. Details: MTT reduction cytotoxicity assay in human tumour cell lines. Particulars: 48 h, MTT. Here is the method: as §1
The target in experiment [2] is T1, ERK5. Nature of the experiment: in vitro (cell-free) kinase assay at […] ATP ([…] at […] ATP); supported by inhibition of EGF-induced ERK5 phosphorylation in cells. The class given is biochemical.

The source of these data is paper PMC9485191, “The ERK5/NF-κB signaling pathway targets endometrial cancer proliferation and survival” (Cellular and Molecular Life Sciences, 2022).

T1 sequence (Q13164 2-816): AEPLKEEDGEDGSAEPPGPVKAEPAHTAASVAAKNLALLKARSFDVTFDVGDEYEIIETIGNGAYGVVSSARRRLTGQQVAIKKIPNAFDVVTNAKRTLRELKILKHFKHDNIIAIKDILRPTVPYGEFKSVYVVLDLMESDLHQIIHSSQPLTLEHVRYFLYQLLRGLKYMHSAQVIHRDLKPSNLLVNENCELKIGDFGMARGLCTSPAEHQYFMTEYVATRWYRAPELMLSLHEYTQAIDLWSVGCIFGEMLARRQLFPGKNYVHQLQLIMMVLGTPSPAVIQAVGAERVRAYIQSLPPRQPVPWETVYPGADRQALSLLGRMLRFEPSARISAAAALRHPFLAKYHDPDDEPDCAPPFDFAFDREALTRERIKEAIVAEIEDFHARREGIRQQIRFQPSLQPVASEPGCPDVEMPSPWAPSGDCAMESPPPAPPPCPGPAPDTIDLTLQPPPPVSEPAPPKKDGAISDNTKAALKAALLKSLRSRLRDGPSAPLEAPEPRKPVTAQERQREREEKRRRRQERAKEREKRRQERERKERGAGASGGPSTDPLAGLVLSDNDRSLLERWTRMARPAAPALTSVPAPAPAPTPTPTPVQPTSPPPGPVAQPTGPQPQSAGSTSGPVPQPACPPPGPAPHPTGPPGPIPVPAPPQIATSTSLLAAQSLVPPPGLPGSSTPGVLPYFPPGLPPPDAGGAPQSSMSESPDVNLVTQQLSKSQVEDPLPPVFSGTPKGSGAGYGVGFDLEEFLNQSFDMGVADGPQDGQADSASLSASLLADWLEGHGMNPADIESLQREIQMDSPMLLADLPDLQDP

A word on the IC50: it is the concentration that inhibits the measured activity by half. High values mean weaker potency, low ones greater potency. As to `CCC(C)N1c2ccccc2C(=O)N(C)c2cnc(Nc3ccc(C(=O)N4CCC(N5CCN(C)CC5)CC4)cc3OC)nc21` (stereo not shown) [JWG-071], the IC50 came out at 572 ± 51 nM at ERK5 [1]; 2900 ± 700 nM with Hela (cervical); 3300 ± 600 nM in the experiment with AN3CA (endometrial); 3200 ± 800 nM in the experiment on Ishikawa (endometrial); 4200 ± 1400 nM with SH-SY5Y (neuroblastoma); 2900 ± 400 nM in the experiment on LN-18 (glioblastoma). Moreover, the IC50 was 1900 ± 300 nM in the experiment on IMR-32 (neuroblastoma), 2700 ± 200 nM with ARK1 (endometrial), 2200 ± 300 nM with C4-2 (prostate) and ~90 nM on ERK5 [2].
